Where two headings read alike, the source gives them in different places.
What was measured:
[1] = system: Streptococcus pneumonia (5 strains); experiment: MIC range, broader panel of Quotient Bioresearch strains (Table 3); conditions: Streptococcus pneumoniae
[2] = system: Burkholderia cepacia (5 strains); experiment: MIC range, broader panel of Quotient Bioresearch strains (Table 4); type: cell-based
[3] = system: Enterococcus faecalis (5 strains); experiment: MIC range, broader panel of Quotient Bioresearch strains (Table 3)
[4] = system: Acinetobacter baumannii (12 strains); experiment: MIC range, broader panel of Quotient Bioresearch strains (Table 4); type: cell-based
[5] = system: Escherichia coli (6 strains); experiment: as above; type: cell-based
[6] = system: Staphylococcus aureus (16 strains); experiment: MIC range, broader panel of Quotient Bioresearch strains (Table 3)
[7] = system: Klebsiella pneumonia (4 strains); experiment: MIC range, broader panel of Quotient Bioresearch strains (Table 4); type: cell-based; conditions: Klebsiella pneumoniae
[8] = system: Group C Streptococcus (4 strains); experiment: MIC range, broader panel of Quotient Bioresearch strains (Table 3)
[9] = system: Bacterial strains injected into thigh muscles; type: in vivo, mice
[10] = system: Enterococcus faecium (3 strains); experiment: MIC range, broader panel of Quotient Bioresearch strains (Table 3)
[11] = system: Streptococcus pyogenes (4 strains); experiment: as above
physchem = type: physicochemical; conditions: thermodynamic from solid
Experimental: The solutions were incubated at room temperature for 24 hours before quantification by HPLC detection. Aqueous solubility was evaluated in simulated gastric fluid (SGF), simulated intestinal fluid (SIF) and phosphate buffer saline (PBS) pH 7.4. Aqueous solubility is expressed in Table 11 as mean solubility in μM.

[12] = system: Pseudomonas aeruginosa (12 strains); experiment: MIC range, broader panel of Quotient Bioresearch strains (Table 4); type: cell-based
[13] = Metabolic stability in liver microsomes +/- S9 fraction (Table 8); type: in vitro ADME; conditions: 1 μM
Experimental: Metabolic stability of a select number of examples was tested in liver microsomes+/−addition of S9 fraction as described by Kuhnz, W. and Gieschen, H. (1998), Drug Metab. Dispos., 1120-1127. Test concentration was 1 μM and HPLC/MS-MS was used for detection.

[14] = system: Haemophilus influenza (5 strains); experiment: MIC range, broader panel of Quotient Bioresearch strains (Table 4); type: cell-based, Haemophilus influenzae
[15] = system: Acinetobacter baumannii, quinolone-resistant strains (Quotient Bioresearch catalogue); experiment: MIC against pathogens resistant against quinolones (Table 5); type: cell-based

For Cc1c(-c2ccc(O)cc2)ccn2c(=O)c(C(=O)[O-])cc(C3CC3)c12.[K+] [Example 46 K salt, potassium 1-cyclopropyl-8-(4-hydroxy-phenyl)-9-methyl-4-oxo-4H-quinolizine-3-carboxylate], the MIC ([1]; read-out: MIC Range Low, Streptococcus pneumonia (5 strains)) was 0.06 µg/mL, the MIC50 ([1]; read-out: MIC Range Median, Streptococcus pneumonia (5 strains)) was 0.06 µg/mL and the MIC ([2]; read-out: MIC Range High, Burkholderia cepacia (5 strains)) was 0.12 µg/mL. For the same molecule, the MIC ([2]; read-out: MIC Range Low, Burkholderia cepacia (5 strains)) was 0.06 µg/mL, the MIC50 ([2]; read-out: MIC Range Median, Burkholderia cepacia (5 strains)) was 0.12 µg/mL and the MIC ([3]; read-out: MIC Range Low, Enterococcus faecalis (5 strains)) was no more than 0.015 µg/mL. The MIC50 ([3]; read-out: MIC Range Median, Enterococcus faecalis (5 strains)) was 0.03 µg/mL, the MIC ([4]; read-out: MIC Range High, Acinetobacter baumannii (12 strains)) was 16 µg/mL and the MIC ([4]; read-out: MIC Range Low, Acinetobacter baumannii (12 strains)) was 0.03 µg/mL. For the same molecule, the MIC50 ([4]; read-out: MIC Range Median, Acinetobacter baumannii (12 strains)) was 4 µg/mL, the MIC ([5]; read-out: MIC Range High, Escherichia coli (6 strains)) was 32 µg/mL and the MIC ([5]; read-out: MIC Range Low, Escherichia coli (6 strains)) was no more than 0.015 µg/mL. For the same molecule, the MIC50 ([5]; read-out: MIC Range Median, Escherichia coli (6 strains)) was 12 µg/mL, the MIC ([6]; read-out: MIC Range High, Staphylococcus aureus (16 strains)) was 0.12 µg/mL and the MIC ([6]; read-out: MIC Range Low, Staphylococcus aureus (16 strains)) was no more than 0.015 µg/mL. It also gave an MIC50 ([6]; read-out: MIC Range Median, Staphylococcus aureus (16 strains)) of 0.06 µg/mL, an MIC ([7]; read-out: MIC Range High, Klebsiella pneumonia (4 strains)) greater than 32 µg/mL and an MIC ([7]; read-out: MIC Range Low, Klebsiella pneumonia (4 strains)) of 0.06 µg/mL. The MIC50 ([7]; read-out: MIC Range Median, Klebsiella pneumonia (4 strains)) was 18 µg/mL, the MIC ([8]; read-out: MIC Range High, Group C Streptococcus (4 strains)) was 0.06 µg/mL and the MIC ([8]; read-out: MIC Range Low, Group C Streptococcus (4 strains)) was 0.03 µg/mL. For the same molecule, the MIC50 ([8]; read-out: MIC Range Median, Group C Streptococcus (4 strains)) was 0.045 µg/mL, the “Log reduction (LgR) from vehicle control (CFU/g)” value (from here on “Log reduction (LgR)”) ([9]; E. coli ATCC 25922, mouse thigh, 30 mg/kg TDS p.o.) was 0.37 and the “Log reduction (LgR)” value ([9]; MRSA ATCC 43300, mouse thigh, 30 mg/kg TDS p.o.) was 3.76. The MIC ([10]; read-out: MIC Range Low, Enterococcus faecium (3 strains)) was 0.12 µg/mL, the MIC50 ([10]; read-out: MIC Range Median, Enterococcus faecium (3 strains)) was 0.5 µg/mL and the MIC ([11]; read-out: MIC Range High, Streptococcus pyogenes (4 strains)) was 0.12 µg/mL. The MIC ([11]; read-out: MIC Range Low, Streptococcus pyogenes (4 strains)) was 0.03 µg/mL, the MIC50 ([11]; read-out: MIC Range Median, Streptococcus pyogenes (4 strains)) was 0.06 µg/mL and the solubility at 24 h (physchem; fassgf or other biorelevant) was 153 µM. It also gave a solubility at 24 h (physchem; pH 7.4, aqueous buffer) of 44 µM, a solubility at 24 h (physchem; simulated gastric fluid) of 7 µM and an MIC ([12]; read-out: MIC Range High, Pseudomonas aeruginosa (12 strains)) greater than 32 µg/mL. The MIC ([12]; read-out: MIC Range Low, Pseudomonas aeruginosa (12 strains)) was 0.25 µg/mL, the MIC50 ([12]; read-out: MIC Range Median, Pseudomonas aeruginosa (12 strains)) was 4 µg/mL and the “Mean Parent Remaining” value ([13]; Liver microsomes + S9, human) was 97%. The “Mean Parent Remaining” value ([13]; Liver microsomes + S9, mouse) was 92%, the “Mean Parent Remaining” value ([13]; Liver microsomes, human) was 86% and the “Mean Parent Remaining” value ([13]; Liver microsomes, mouse) was 81%. For the same molecule, the MIC50 ([14]; 16 h, Median of the strain panel) was no more than 0.015 µg/mL, the MIC ([14]; High of the strain panel, read-out: MIC Range High, Haemophilus influenza (5 strains)) was no more than 0.015 µg/mL and the MIC ([14]; Low of the strain panel, read-out: MIC Range Low, Haemophilus influenza (5 strains)) was no more than 0.015 µg/mL. It also gave an MIC ([15]; Acinetobacter baumannii, GN54) of 2 µg/mL.
In the case of C[C@H]1COc2c(N3CCN(C)CC3)c(F)cc3c(=O)c(C(=O)O)cn1c23 [Levofloxacin, reference compound], the MIC ([15]; strain GN54, Acinetobacter baumannii levofloxacin-resistant clinical isolate, read-out: MIC) is reported as no less than 16 µg/mL.
In the case of CN[C@H](CC(C)C)C(=O)N[C@H]1C(=O)N[C@@H](CC(N)=O)C(=O)N[C@H]2C(=O)N[C@H]3C(=O)N[C@H](C(=O)N[C@H](C(=O)O)c4cc(O)cc(O)c4-c4cc3ccc4O)[C@H](O)c3ccc(c(Cl)c3)Oc3cc2cc(c3O[C@@H]2O[C@H](CO)[C@@H](O)[C@H](O)[C@H]2O[C@H]2C[C@](C)(N)[C@H](O)[C@H](C)O2)Oc2ccc(cc2Cl)[C@H]1O [vancomycin], the “Log reduction (LgR)” value ([9]; MRSA ATCC 43300, mouse thigh, 25 mg/kg i.v. once) is reported as 2.71.

Reference: patent US8962842B2, “2-pyridone antimicrobial compositions” (priority 2010, dated 2015)
